SMILES strings stand for the structures.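 A five-concentration, 48-hour dose response in 96-well plates underlies each endpoint, interpolated linearly between surrounding concentrations. Definition used: TGI = concentration required for complete inhibition of growth.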

Holding throughout (test): NCI anticancer screen, dose series, 48 h
The test system of assay [1] is NCI-H226 lung.
The subject of assay [2] is OVCAR-8 ovarian.
Assay [3] concerns NCI/ADR-RES ovarian.
Assay [4] has as its system EKVX NSCLC.
Assay [5] concerns SF-295 CNS.
Assay [6] has as its system HCT-116 colon.
Assay [7] concerns MDA-MB-435.
Assay [8] has as its system HOP-92 NSCLC.
Assay [9] has as its system ACHN renal.
Assay [10] deals with SNB-75 CNS.
Assay [11] relates to MDA-N.
The test system of assay [12] is SNB-19 CNS.
Assay [13] has as its system HS 578T breast.
For assay [14], the system named is K-562 leukemia.
Assay [15] has as its system HL-60(TB) leukemia.

Turning to `COc1ccc2c(c1)c1c(n2CCN(C)C)-c2ccccc2CC1`, the TGI was determined as 24.6 µM in [1]; 31.1 µM in assay [2]; 31.5 µM in assay [3]; 24.4 µM in [4]; 30.6 µM in assay [5]; 28.7 µM in assay [6]. The TGI in [7] was found to be 36.5 µM; in assay [8], 31 µM; in assay [9], 30 µM; in assay [10], 26.6 µM; in assay [11], 30.5 µM; in assay [12] it was 35.5 µM. Moreover, the TGI in [13] was 34.2 µM; in [14], 29.8 µM.
`C[N+]12C=CC=C1C(N1CCCC1)c1scc(-c3ccccc3)c12` (centres undefined): the TGI was 28.9 µM in [1]; over 100 µM in assay [2]; over 100 µM in [3]; over 100 µM in assay [4]; over 100 µM in [5]; over 100 µM in [6]. For the same compound, the TGI in assay [7] is over 100 µM; in assay [10], 47.8 µM; in [11] it was 84.3 µM; in [12], over 100 µM; in [13], 67.5 µM; in assay [14], 29.1 µM.
In the case of `CCOC(=O)C1(F)S(=O)(=O)OCCOS1(=O)=O`, the TGI in assay [1], in assay [2], in assay [3], in [4], in assay [5] and in assay [6] was over 100 µM throughout. The TGI in [7], in [9], in assay [10], in assay [11], in assay [12] and in [13] was over 100 µM each time.
With `CC(C)(C)C1=CC(C)(n2[nH]c(=O)n(-c3ccccc3)c2=O)C=C(C(C)(C)C)C1=O`, the TGI in [1], in assay [2], in assay [3], in [5], in assay [6] and in assay [7] was over 100 µM throughout. Also, the TGI in assay [8], in assay [9], in [10], in assay [11], in assay [12] and in assay [13] was over 100 µM throughout. In assay [14], this compound displayed a TGI of over 100 µM.
With `O=C(NC1CCN(Cc2ccccc2)CC1)c1ccc(I)cc1`, the TGI in assay [15], in assay [1], in assay [2], in [3], in assay [4] and in assay [5] was over 100 µM each time. Besides, the TGI in [6], in assay [7], in assay [8], in [9], in assay [11] and in [12] was over 100 µM in each case. Further, the TGI in assay [13] and in assay [14] was over 100 µM each time.
As to `COC(=O)/C=C(\CC(=O)OC)n1nnnc1[C@@H]1C[C@H](COC(c2ccccc2)(c2ccccc2)c2ccccc2)[C@H]2OC(C)(C)O[C@H]21`, the TGI in assay [15], in [1], in assay [2], in [4], in assay [5] and in assay [6] was over 100 µM in each case. The TGI in assay [7], in assay [8], in assay [9], in [10], in [11] and in [12] was over 100 µM in each case. The TGI in [13] and in assay [14] was over 100 µM in each case.
With `COc1c(=O)cc2cc[nH]c3ccn(C)c1c23`, the TGI in assay [1], in assay [2], in assay [3], in assay [4], in [5] and in [6] was over 100 µM throughout. Further, the TGI in [7], in assay [9], in [10], in assay [11], in [12] and in [13] was over 100 µM each time. Moreover, the TGI in [14] is over 100 µM.
In the case of `CCc1c(C)c(C#N)c(=S)n(C2OC(COC(C)=O)C(OC(C)=O)C(OC(C)=O)C2OC(C)=O)c1-c1ccccc1` (centres undefined), the TGI in [15] is over 100 µM; in [1] it was over 31.6 µM; in [2] it was over 31.6 µM; in [3] it was over 31.6 µM; in assay [4] it was over 100 µM; in [5], 27 µM. Besides, the TGI was over 31.6 µM in assay [6]; over 31.6 µM in assay [7]; over 31.6 µM in assay [8]; over 31.6 µM in assay [9]; over 31.6 µM in [11]; 68.2 µM in [13]. In assay [14], this compound returned a TGI of 47.2 µM.
As for `CC1=NN(c2nc(N)nc(/C(C#N)=C\c3csc([N+](=O)[O-])c3)n2)C(C)(C)C1`, the TGI was over 100 µM in assay [15]; 76 µM in assay [1]; 64.7 µM in [2]; 70.3 µM in [3]; 90.1 µM in assay [4]; over 100 µM in assay [5]. The TGI in [6] was over 100 µM; in assay [7], over 100 µM; in assay [8], over 100 µM; in [9], over 100 µM; in assay [11] it was 98.9 µM; in [13], 54.9 µM. Also, in assay [14], the TGI was over 100 µM.
For `O=C(c1cccs1)N(C(=S)OCCOc1ccccc1)c1ccccc1`, the TGI in [15] amounted to 48 µM; in assay [2], 87.8 µM; in assay [3], 57.7 µM; in [4], 78.8 µM; in assay [5], 71 µM; in assay [6], 44.6 µM. Further, the TGI in [7] is 33.7 µM; in assay [8], 45.9 µM; in assay [9] it was 72.1 µM; in assay [10], 54.7 µM; in assay [11] it was 33.4 µM; in assay [12], over 100 µM. For the same compound, the TGI in assay [13] and in assay [14] was over 100 µM in each case.
As to `CCOC(=O)NNC(=O)NCc1cccc(CNC(=O)NNC(=O)OCC)c1`, the TGI in [15], in [1], in assay [2], in assay [3], in assay [4] and in [6] was over 100 µM each time. Besides, the TGI in assay [7], in assay [10], in assay [11], in assay [12], in [13] and in [14] was over 100 µM in each case.
In the case of `COC(=O)c1ccc(S)c(S(=O)(=O)Nc2n[nH]c(N)n2)c1`, the TGI in assay [15], in [2], in assay [3], in [4], in assay [5] and in [6] was over 100 µM in each case. Besides, the TGI in assay [7], in assay [8], in assay [9], in assay [11], in assay [12] and in [13] was over 100 µM each time. In [14], this compound displayed a TGI of over 100 µM.
For the compound `COC(=O)[C@]1(NC(=O)c2ccccc2)C[C@H]1C=O`, the TGI in assay [1], in assay [2], in assay [3], in [4], in [5] and in [6] was over 100 µM each time. The TGI in assay [7], in assay [8], in assay [9], in assay [10], in assay [11] and in assay [12] was over 100 µM each time. For the same compound, the TGI in assay [13] and in assay [14] was over 100 µM throughout.
As to `Nc1ccc2c(c1)nc1n2C(c2c(F)cccc2F)SC1` (centres undefined), the TGI in assay [15], in assay [2], in assay [3], in [4], in assay [5] and in assay [6] was over 100 µM throughout. Moreover, the TGI in [7], in assay [9], in assay [10], in assay [11], in assay [12] and in assay [13] was over 100 µM in each case. The TGI in [14] was over 100 µM.
For the compound `CCOC(=O)CNC(=O)C(CSC(=O)N(O)c1ccc(Cl)cc1)NC(=O)CCC(N)C(=O)OCC` (centres undefined), the TGI in [1], in assay [2], in assay [3], in assay [4], in assay [5] and in assay [6] was over 50 µM each time. Besides, the TGI in [7], in assay [8], in assay [9], in assay [11], in [12] and in assay [13] was over 50 µM in each case. The same compound returned a TGI in [14] of over 50 µM.
Take `Oc1ccc2cc(Br)ccc2c1-c1c(O)ccc2ccc(Br)cc12`: the TGI in assay [15] came to 38.2 µM; in assay [1], 30.4 µM; in [2] it was 30.4 µM; in [3] it was 27.7 µM; in assay [5], 30.6 µM; in assay [6], 27.4 µM. In addition, the TGI in assay [7] worked out at 31.1 µM; in [9], 28 µM; in [11], 24.6 µM; in [12] it was 29.3 µM; in assay [13], 24.2 µM; in assay [14], 35.8 µM.

These data come from PubChem BioAssay (NCI).
